Results from paper PMC11219945, “Assessing genotoxic effects of chemotherapy agents by a robust in vitro assay based on mass spectrometric quantification of γ-H2AX in HepG2 cells” (Frontiers in Pharmacology, 2024).

Columns and labels:
[1] = combination of in vitro mouse lymphoma, chromosomal aberration, and micronucleus tests; cited from earlier work
[2] = set-up: method as in earlier work; conditions: ref IARC; cited from earlier work
γ-H2AX in HepG2 cells [3] = experiment: γ-H2AX time-effect relationship / DNA repair kinetics (k, t50) in HepG2 cells; format: cell-based, Human; set-up: k (speed of γ-H2AX descending): unit not given here; conditions: 100 μM, 0.5–8 h time-dependent kinetics
Protocol: The cells were then treated with different chemotherapy agents in serum-free medium. […] Independent biological experiments with three technical replicates were performed.
(§1) In short, the cell clumps were collected after a certain period of cell culture and histones were obtained by acid extraction. After nuclear isolation, histone extraction, trypsin digestion in the solution, and desalting, the peptide sample from the carboxy terminus of H2AX was analyzed. LC–MS/MS analysis was conducted using a QTRAP 5500 (AB Sciex, Framingham, United States) with an ACQUITY UPLC system (Waters Co., Manchester, United Kingdom). Chromatographic separation was carried out with an ACQUITY UPLC BEH C18 column (100 mm × 2.1 mm, 1.7 μm). The column temperature was maintained at 40°C. A 10 μL sample aliquot was injected for analysis. Mobile phases A and B were 0.1% FA in distilled H2O and acetonitrile, respectively. […] The eluent composition was maintained for 2 min, after which the system returned to 1% B and was re-equilibrated for 2 min. The eluates in the first 1 min were switched to waste to prevent contaminating the ion source. The electrospray ionization source was operated in positive mode using nitrogen as the nebulizing gas. All experiments were performed independently in at least triplicate.
Here, we estimated k and t50 after exposure to nine representative chemotherapy agents based on the 0.5–8 h γ-H2AX time-dependent kinetics (Figure 5) and then obtained these parameters to describe each agent DSB repair capacity using the functions optim and optimize in R language.

γ-H2AX in HepG2 cells [4] = experiment: γ-H2AX MS assay, dose-effect relationship in HepG2 cells; conditions: human, 24 h
Protocol: Human hepatoblastoma cells (HepG2) were cultivated in DMEM medium under standard conditions (37°C in a 5% CO2 atmosphere). The culturing medium was added with 10% FBS, 100 U/mL penicillin and 100 μg/mL streptomycin.
In accordance to our previous study, cells were exposed to the chemotherapeutic agent by adding a proper volume of chemotherapeutic agent stock solution to the fresh medium without serum. Controls were treated with DMSO (0.1%) in medium. Independent biological experiments with three technical replicates were conducted.
The cells were then treated with different chemotherapy agents in serum-free medium. For a dose-effect relationship experiment, cells were exposed to each agent at either of three concentrations with a 10-fold increase for 24 h. For the time-effect relationship experiment of nine tested chemotherapy agents, cells were exposed to selected chemotherapy agents at 0.5, 1, 2, 4, 8, 12, and 24 h, with the concentration of 100 μM. Independent biological experiments with three technical replicates were performed.
as §1, with “The quantification of γ-H2AX was carried out according to the previous report ([Qu et al., 2021]). In” for “In”
To this end, we firstly examined the cytotoxicity of 34 chemotherapy agents, all of which were already well classified in terms of diverse characteristics. These tested chemotherapy agents were serially diluted for exposure to check the effects on cell viability.

SMILES: COc1cccc2c1C(=O)c1c(O)c3c(c(O)c1C2=O)C[C@@](O)(C(=O)CO)C[C@@H]3O[C@H]1C[C@H](N)[C@H](O)[C@H](C)O1 [Doxorubicin]
- In vitro assays (genotoxicity) [1]: +
- IARC classification group [2]: 2A
- k (speed of γ-H2AX descending) (γ-H2AX in HepG2 cells [3]): 0.088
- t50 (time required for γ-H2AX to drop to half of the maximum value) (γ-H2AX in HepG2 cells [3]): 4.269 h
- maximum γ-H2AX value within the selected concentration range (γ-H2AX in HepG2 cells [4]): 21

SMILES: COc1cccc2c1C(=O)c1c(O)c3c(c(O)c1C2=O)C[C@@](O)(C(C)=O)C[C@@H]3O[C@H]1C[C@H](N)[C@H](O)[C@H](C)O1 [Daunorubicin]
- In vitro assays (genotoxicity) [1]: +
- IARC classification group [2]: 2B
- k (speed of γ-H2AX descending) (γ-H2AX in HepG2 cells [3]): 0.139
- t50 (time required for γ-H2AX to drop to half of the maximum value) (γ-H2AX in HepG2 cells [3]): 3.344 h
- maximum γ-H2AX value within the selected concentration range (γ-H2AX in HepG2 cells [4]): 23
